These compounds were tested on B16F1 cells (assay: Screening of tranexamic acid-peptides: intracellular melanin production in α-MSH-treated melanocytes). Conditions: α-MSH 20 μg/mL, 3 days, intracellular melanin at 490 nm; Control (No Treatment) = 100; test concentration not stated (1-250 μg/mL tested).
Format: cell-based, mouse
Procedure: B16F1 cells, which are mouse melanocytes, were cultured in Dulbecco's modified Eagle's media (DMEM, Sigma), to which 10% fetal bovine serum (FBS, Sigma) was added, under 37° C. CO2 conditions. The cells were cultured in a 24-well plate at a concentration of 1×10^5 cells/well, and the attachment of cells was confirmed. Then, the control group was not treated with anything but only a solvent was added thereto, whereas a-MSH (20 μg/mL) was added to the positive control group. The remaining dishes were treated with α-MSH (20 μg/mL), 40 kinds of tranexamic acid-peptides, and the control group with Arbutin and AA2G, to a concentration of 1 μg/mL, 10 μg/mL, 100 μg/mL, and 250 μg/mL, respectively. Test materials were added to each dish and cultured for 3 days. After 3 days, the culture was removed by centrifugation, and the cells were lysed and intracellular melanin was collected, and observed at 490 nm to measure the amount of intracellular melanin production.
40 kinds of tranexamic acid-peptides were treated according to concentration, and their inhibitory effect against melanin production was measured.
For Tranexamil-TA [Dipeptide-21 TA], the “α-MSH Inhibitory Ability (%)” value was 76%.
With Tranexamil-GH [Dipeptide-9 GH] the “α-MSH Inhibitory Ability (%)” value was 70%.
With Tranexamil-GP [Dipeptide-4 GP] the “α-MSH Inhibitory Ability (%)” value was 80%.
Tranexamil-VP [Dipeptide-25 VP] was tested, and the “α-MSH Inhibitory Ability (%)” value was 69%.
Tranexamil-VV [Dipeptide-24 VV] was tested, and the “α-MSH Inhibitory Ability (%)” value was 72%.
Tranexamil-VR [Dipeptide-36 VR] was tested, and the “α-MSH Inhibitory Ability (%)” value was 70%.
With Tranexamil-AA [Dipeptide-26 AA] the “α-MSH Inhibitory Ability (%)” value was 92%.
In the case of Tranexamil-WA [Dipeptide-14 WA], the “α-MSH Inhibitory Ability (%)” value is reported as 65%.
For Tranexamil-NT [Dipeptide-40 NT], the “α-MSH Inhibitory Ability (%)” value was 84%.
With Tranexamil-AH [Dipeptide-11 AH] the “α-MSH Inhibitory Ability (%)” value was 82%.
With Tranexamil-PF [Dipeptide-22 PF] the “α-MSH Inhibitory Ability (%)” value was 89%.
In the case of Tranexamil-CC [Dipeptide-12 CC], the “α-MSH Inhibitory Ability (%)” value is reported as 83%.
In the case of Tranexamil-QG [Dipeptide-34 QG], the “α-MSH Inhibitory Ability (%)” value is reported as 85%.
For Tranexamil-CG [Dipeptide-39 CG], the “α-MSH Inhibitory Ability (%)” value was 92%.
For Tranexamil-ES [Dipeptide-5 ES], the “α-MSH Inhibitory Ability (%)” value was 80%.
For Tranexamil-AS [Dipeptide-1 AS], the “α-MSH Inhibitory Ability (%)” value was 98%.
Tranexamil-NA [Dipeptide-17 NA] was tested, and the “α-MSH Inhibitory Ability (%)” value was 79%.
Tranexamil-PQ [Dipeptide-33 PQ] was tested, and the “α-MSH Inhibitory Ability (%)” value was 71%.
Tranexamil-ET [Dipeptide-38 ET] was tested, and the “α-MSH Inhibitory Ability (%)” value was 52%.
For Tranexamil-GK [Dipeptide-29 GK], the “α-MSH Inhibitory Ability (%)” value was 96%.
In the case of Tranexamil-HA [Dipeptide-28 HA], the “α-MSH Inhibitory Ability (%)” value is reported as 87%.
Tranexamil-AT [Dipeptide-2 AT] was tested, and the “α-MSH Inhibitory Ability (%)” value was 88%.
In the case of Tranexamil-PP [Dipeptide-35 PP], the “α-MSH Inhibitory Ability (%)” value is reported as 85%.
With Tranexamil-RP [Dipeptide-32 RP] the “α-MSH Inhibitory Ability (%)” value was 87%.
For Tranexamil-WE [Dipeptide-15 WE], the “α-MSH Inhibitory Ability (%)” value was 78%.
With Tranexamil-EC [Dipeptide-20 EC] the “α-MSH Inhibitory Ability (%)” value was 61%.
For Tranexamil-SS [Dipeptide-19 SS], the “α-MSH Inhibitory Ability (%)” value was 80%.
With Tranexamil-KK [Dipeptide-6 KK] the “α-MSH Inhibitory Ability (%)” value was 83%.
With `NC[C@H]1CC[C@H](C(=O)O)CC1` [TXA, tranexamic acid] the “α-MSH Inhibitory Ability (%)” value was 45%.
In the case of Tranexamil-SA [Dipeptide-13 SA], the “α-MSH Inhibitory Ability (%)” value is reported as 81%.
Tranexamil-MA [Dipeptide-10 MA] was tested, and the “α-MSH Inhibitory Ability (%)” value was 56%.
For Tranexamil-TS [Dipeptide-18 TS], the “α-MSH Inhibitory Ability (%)” value was 75%.
With Tranexamil-MY [Dipeptide-8 MY] the “α-MSH Inhibitory Ability (%)” value was 78%.
In the case of Tranexamil-SV [Dipeptide-37 SV], the “α-MSH Inhibitory Ability (%)” value is reported as 64%.
For Tranexamil-AR [Dipeptide-31 AR], the “α-MSH Inhibitory Ability (%)” value was 93%.
In the case of Tranexamil-KV [Dipeptide-30 KV], the “α-MSH Inhibitory Ability (%)” value is reported as 83%.
In the case of Tranexamil-KD [Dipeptide-16 KD], the “α-MSH Inhibitory Ability (%)” value is reported as 81%.

The compounds below were run on mouse melanocytes (assay: Whitening effect: melanin production in α-MSH-treated melanocytes by visual inspection). Conditions: images of melanocytes, similar concentrations, 3 days.
Format: cell-based
Procedure: According to a preferred embodiment of the present invention, the peptides of the present invention […] the melanin production in a concentration-dependent manner. […] Additionally, when cells were treated with 4 kinds of the tranexamic acid-peptides; the peptides, to which tranexamic acid was not bound; Arbutin; and AA2G at various concentrations (1μ, 10μ, 100μ, and 250μ), cultured for 3 days, and the absorbance of the cultures were measured at 490 nm and analyzed.
Tranexamic acid-peptides were treated according to concentration and their inhibitory effect against melanin production was measured. The mouse melanocytes were cultured in Dulbecco's modified Eagle's media (DMEM, Sigma) containing 10% fetal bovine serum ([…], Sigma) under 37° C. CO2 conditions.
The cells were cultured in a 24-well plate at a concentration of 1×10^5 cells/well, and the attachment of cells was confirmed. Then, the control group was not treated with anything but only a solvent was added thereto, whereas a-MSH ([…]) was added to the positive control group. The remaining dishes were treated with α-MSH (20 μg/mL), 4 kinds of tranexamic acid-peptides, and the control group with Arbutin and AA2G, to a concentration of 1 μg/mL, 10 μg/mL, 100 μg/mL, and 250μ), respectively. Test materials were added to each dish and cultured for 3 days. […]
`OC[C@H]1O[C@@H](Oc2ccc(O)cc2)[C@H](O)[C@@H](O)[C@@H]1O` [Arbutin] was tested, and the “cell number compared to α-MSH treatment” value was “rapidly decreased”.

The compounds below were run on skin pigmentation (melanin index) (assay: Clinical test of creams: skin pigmentation by Mexameter). Conditions: 54 women, creams with 1% tranexamic acid-dipeptide or tranexamic acid, 2 times a day.
Format: in vivo, human
Source text: In particular, a cream containing tranexamic acid was used as the positive control group and the standard base cream was used as the negative control group.
The face of each subject was divided into two parts vertically and the two kinds of creams prepared above were applied to each face. The subjects were required to continuously use the creams in the morning and evening, 2 times a day for 8 weeks after washing the face.
For the objective evaluation of changes in skin pigmentation before and after the use of the creams, the changes in pigmentation were measured using the Mexameter (CK, Germany) before the use of the creams, 2 weeks, 4 weeks, 6 weeks, and 8 weeks after the use of the creams.
As a result of the above experiment, the tranexamic acid-dipeptide with a greater effect between the two kinds of tranexamic acid-dipeptides, was selected and, as an attempt to reduce the content in the cream, a cream containing 0.5% tranexamic acid-dipeptide was prepared. Ten women subjects were collected and the 8-week clinical experiment was performed in the same manner as described above.
`NC[C@H]1CC[C@H](C(=O)O)CC1` [TXA, tranexamic acid] was tested, and the “decrease of the melanin index after 8 weeks” value was 11.4%.

Same assay, conditions: ten women, cream with 0.5% tranexamic acid-dipeptide or tranexamic acid, 2 times a day
For `NC[C@H]1CC[C@H](C(=O)O)CC1` [TXA, tranexamic acid], the “decrease of the melanin index after 8 weeks” value was 10.2%.

— US10532018B2, “Method of whitening skin using tranexamic acid-peptide having skin whitening activity” (ANPEP INC., priority 2016, dated 2020)
